Laboratory results taken from ChEMBL document CHEMBL3797055, “Glabridin-chalcone hybrid molecules: drug resistance reversal agent against clinical isolates of methicillin-resistant Staphylococcus aureus” (Medchemcomm, 2016).
In brackets after ≈: the same amount, converted by molar mass.

Tests used:
Type in all cases: functional
[1] = system: Staphylococcus aureus; test: Potentiation of norfloxacin-induced antibacterial activity against clinical isolates of methicillin-resistant Staphylococcus aureus ST2071 assessed as reduction in norfloxacin MIC by checkerboard assay relative to control
[2] = system: Staphylococcus aureus; test: Potentiation of norfloxacin-induced antibacterial activity against clinical isolates of methicillin-resistant Staphylococcus aureus P4629 assessed as reduction in norfloxacin MIC by checkerboard assay relative to control
[3] = system: Staphylococcus aureus; test: Potentiation of norfloxacin-induced antibacterial activity against clinical isolates of methicillin-resistant Staphylococcus aureus P4423 assessed as reduction in norfloxacin MIC by checkerboard assay relative to control
[4] = system: Staphylococcus aureus; test: Potentiation of norfloxacin-induced antibacterial activity against clinical isolates of methicillin-resistant Staphylococcus aureus ST10760 assessed as reduction in norfloxacin MIC by checkerboard assay relative to control
[5] = system: Staphylococcus aureus; test: Potentiation of norfloxacin-induced antibacterial activity against clinical isolates of methicillin-resistant Staphylococcus aureus ST10342 assessed as reduction in norfloxacin MIC by checkerboard assay relative to control
[6] = system: Staphylococcus aureus; test: Potentiation of norfloxacin-induced antibacterial activity against clinical isolates of methicillin-resistant Staphylococcus aureus P4650 assessed as reduction in norfloxacin MIC by checkerboard assay relative to control
[7] = system: Staphylococcus aureus; test: Ratio of MIC for clinical isolates of methicillin-resistant Staphylococcus aureus ST2071 to MIC for clinical isolates of methicillin-resistant Staphylococcus aureus ST2071 in presence of norfloxacin
[8] = system: Staphylococcus aureus; test: Ratio of MIC for clinical isolates of methicillin-resistant Staphylococcus aureus P4629 to MIC for clinical isolates of methicillin-resistant Staphylococcus aureus P4629 in presence of norfloxacin
[9] = system: Staphylococcus aureus; test: Ratio of MIC for clinical isolates of methicillin-resistant Staphylococcus aureus P4423 to MIC for clinical isolates of methicillin-resistant Staphylococcus aureus P4423 in presence of norfloxacin
[10] = system: Staphylococcus aureus; test: Ratio of MIC for clinical isolates of methicillin-resistant Staphylococcus aureus ST10760 to MIC for clinical isolates of methicillin-resistant Staphylococcus aureus ST10760 in presence of norfloxacin
[11] = system: Staphylococcus aureus; test: Ratio of MIC for clinical isolates of methicillin-resistant Staphylococcus aureus ST10342 to MIC for clinical isolates of methicillin-resistant Staphylococcus aureus ST10342 in presence of norfloxacin
[12] = system: Staphylococcus aureus; test: Ratio of MIC for clinical isolates of methicillin-resistant Staphylococcus aureus P4650 to MIC for clinical isolates of methicillin-resistant Staphylococcus aureus P4650 in presence of norfloxacin
[13] = system: Staphylococcus aureus; test: Bactericidal activity against clinical isolates of methicillin-resistant Staphylococcus aureus ST2071 assessed as reduction in viability at MIC after 24 hrs by time kill kinetic analysis relative to control
[14] = system: Staphylococcus aureus; test: Bactericidal activity against clinical isolates of methicillin-resistant Staphylococcus aureus ST2071 assessed as reduction in viability at 0.5 MIC after 24 hrs by time kill kinetic analysis relative to control
[15] = system: Staphylococcus aureus; test: Bactericidal activity against clinical isolates of methicillin-resistant Staphylococcus aureus ST2071 assessed as reduction in viability at 0.5 MIC after 24 hrs by time kill kinetic analysis in presence of norfloxacin relative to control
[16] = system: Staphylococcus aureus; test: Antibacterial activity against Staphylococcus aureus MTCC 96 by broth microdilution assay
[17] = system: Staphylococcus aureus; test: Antibacterial activity against clinical isolates of methicillin-resistant Staphylococcus aureus ST2071 by broth microdilution assay
[18] = system: Staphylococcus aureus; test: Antibacterial activity against clinical isolates of methicillin-resistant Staphylococcus aureus P4629 by broth microdilution assay
[19] = system: Staphylococcus aureus; test: Antibacterial activity against clinical isolates of methicillin-resistant Staphylococcus aureus P4423 by broth microdilution assay
[20] = system: Staphylococcus aureus; test: Antibacterial activity against clinical isolates of methicillin-resistant Staphylococcus aureus ST10760 by broth microdilution assay
[21] = system: Staphylococcus aureus; test: Antibacterial activity against clinical isolates of methicillin-resistant Staphylococcus aureus ST10342 by broth microdilution assay
[22] = system: Staphylococcus aureus; test: Antibacterial activity against clinical isolates of methicillin-resistant Staphylococcus aureus P4650 by broth microdilution assay
[23] = system: Staphylococcus aureus; test: Potentiation of norfloxacin-induced antibacterial activity against clinical isolates of methicillin-resistant Staphylococcus aureus ST2071 assessed as norfloxacin MIC by checkerboard assay
[24] = system: Staphylococcus aureus; test: Potentiation of norfloxacin-induced antibacterial activity against clinical isolates of methicillin-resistant Staphylococcus aureus P4629 assessed as norfloxacin MIC by checkerboard assay
[25] = system: Staphylococcus aureus; test: Potentiation of norfloxacin-induced antibacterial activity against clinical isolates of methicillin-resistant Staphylococcus aureus P4423 assessed as norfloxacin MIC by checkerboard assay
[26] = system: Staphylococcus aureus; test: Potentiation of norfloxacin-induced antibacterial activity against clinical isolates of methicillin-resistant Staphylococcus aureus ST10760 assessed as norfloxacin MIC by checkerboard assay
[27] = system: Staphylococcus aureus; test: Potentiation of norfloxacin-induced antibacterial activity against clinical isolates of methicillin-resistant Staphylococcus aureus ST10342 assessed as norfloxacin MIC by checkerboard assay
[28] = system: Staphylococcus aureus; test: Potentiation of norfloxacin-induced antibacterial activity against clinical isolates of methicillin-resistant Staphylococcus aureus P4650 assessed as norfloxacin MIC by checkerboard assay
[29] = system: Staphylococcus aureus; test: Antibacterial activity against clinical isolates of methicillin-resistant Staphylococcus aureus ST2071 by checkerboard assay in presence of norfloxacin
[30] = system: Staphylococcus aureus; test: Antibacterial activity against clinical isolates of methicillin-resistant Staphylococcus aureus P4629 by checkerboard assay in presence of norfloxacin
[31] = system: Staphylococcus aureus; test: Antibacterial activity against clinical isolates of methicillin-resistant Staphylococcus aureus P4423 by checkerboard assay in presence of norfloxacin
[32] = system: Staphylococcus aureus; test: Antibacterial activity against clinical isolates of methicillin-resistant Staphylococcus aureus ST10760 by checkerboard assay in presence of norfloxacin
[33] = system: Staphylococcus aureus; test: Antibacterial activity against clinical isolates of methicillin-resistant Staphylococcus aureus ST10342 by checkerboard assay in presence of norfloxacin
[34] = system: Staphylococcus aureus; test: Antibacterial activity against clinical isolates of methicillin-resistant Staphylococcus aureus P4650 by checkerboard assay in presence of norfloxacin

## COc1ccc([C@@H]2COc3c(cc(/C=C/C(=O)c4ccco4)c4c3C=CC(C)(C)O4)C2)c(OC)c1
[1]
  fold change (FC): 8
[2]
  fold change (FC): 4
[3]
  fold change (FC): 8
[4]
  fold change (FC): 8
[5]
  fold change (FC): 8
[6]
  fold change (FC): 4
[7]
  Ratio: 4
[8]
  Ratio: 4
[9]
  Ratio: 4
[10]
  Ratio: 4
[11]
  Ratio: 4
[12]
  Ratio: 4
[13]
  fold change (FC): 2
[14]
  fold change (FC): <=1.52
[15]
  fold change (FC): <=3
[16]
  MIC: 12.5 µg/mL (≈ 26.5 µM)
[17]
  MIC: 25 µg/mL (≈ 52.9 µM)
[18]
  MIC: 12.5 µg/mL (≈ 26.5 µM)
[19]
  MIC: 12.5 µg/mL (≈ 26.5 µM)
[20]
  MIC: 25 µg/mL (≈ 52.9 µM)
[21]
  MIC: 12.5 µg/mL (≈ 26.5 µM)
[22]
  MIC: 12.5 µg/mL (≈ 26.5 µM)
[23]
  MIC: 62.5 µg/mL
[24]
  MIC: 125 µg/mL
[25]
  MIC: 31.2 µg/mL
[26]
  MIC: 62.5 µg/mL
[27]
  MIC: 31.2 µg/mL
[28]
  MIC: 62.5 µg/mL
[29]
  fractional inhibitory concentration index (FICI): 0.375
[30]
  fractional inhibitory concentration index (FICI): 0.625
[31]
  fractional inhibitory concentration index (FICI): 0.5
[32]
  fractional inhibitory concentration index (FICI): 0.375
[33]
  fractional inhibitory concentration index (FICI): 0.5
[34]
  fractional inhibitory concentration index (FICI): 0.625
